Laboratory results reported in patent US10717746B2, “Chemical compounds” (ASTRAZENECA AB, priority 2015, dated 2020).

Legend:
[1] = tested on: phosphorylation of RNA Polymerase II (RNAPII) at the Ser2 site in MCF7 cells; test: MCF7 pSer2 RNAPII MOA assay (immunofluorescence); format: cell-based; conditions: Homo sapiens, MCF7, 6 h, 6-hr treatment, read-out: p-Ser 2 RNAPII (IC50)
How it was run: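 Phospho-Ser2 RNAPII was measured by immunofluorescence (Alexa Fluor 488, DAPI counterstain) with plate cytometer read-out. Before staining, cells were fixed with paraformaldehyde and permeabilized with Triton. Exposure was 6 h at 37° C. to CDK9 inhibitors over 7 points (3 μM to 0.004 μM) in MCF7 cells seeded at 2500/well the previous day.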

CDK9/CycT1 [2] = molecular target: T1, CDK9/CycT1 (Homo sapiens (Human), UniProt P50750); test: CDK9 kinase assay, ATP concentration at Km (mobility shift, Caliper LC3000); format: biochemical; conditions: 6 μM ATP, 3 nM CDK9/CycT1; read-out: CDK9 ATP conc. at Km (IC50)
How it was run: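 […], compound sat 15 min with enzyme mix: 3 nM CDK9/CycT1, 1.5 µM FITC-GSRTPMY substrate, 6 µM ATP, pH 7.2 HEPES buffer.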

MV411 cells = test: MV411 caspase activity assay (Caspase-Glo 3/7); format: cell-based; conditions: Homo sapiens, MV4-11, 6 h, 6-hr treatment, caspase 3/7 induction
How it was run: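 MV411 AML cells (3000/well) were plated overnight, then treated with compound for 6 h at 37 °C. Caspase-3/7 activity was read as luminescence after 30 min with Caspase-Glo 3/7 reagent at room temperature.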

CDK9/CycT1 [3] = molecular target: T1, CDK9/CycT1; test: CDK9 kinase assay, high ATP concentration (5 mM ATP); format: biochemical; conditions: 1.5 nM CDK9, read-out: CDK9 High ATP conc. (IC50)
How it was run: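 Caliper mobility-shift read-out of phosphorylated vs unphosphorylated FITC-peptide (1.5 μM), giving percent turnover. Final 1.5 nM CDK9/CycT1 and 5 mM ATP in 50 mM HEPES pH 7.2, 1 mM DTT, 10 mM MgCl2; compound preincubated 15 min, reaction 90 min at 25° C, stopped with EDTA.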

T1 sequence (P50750 whole entry): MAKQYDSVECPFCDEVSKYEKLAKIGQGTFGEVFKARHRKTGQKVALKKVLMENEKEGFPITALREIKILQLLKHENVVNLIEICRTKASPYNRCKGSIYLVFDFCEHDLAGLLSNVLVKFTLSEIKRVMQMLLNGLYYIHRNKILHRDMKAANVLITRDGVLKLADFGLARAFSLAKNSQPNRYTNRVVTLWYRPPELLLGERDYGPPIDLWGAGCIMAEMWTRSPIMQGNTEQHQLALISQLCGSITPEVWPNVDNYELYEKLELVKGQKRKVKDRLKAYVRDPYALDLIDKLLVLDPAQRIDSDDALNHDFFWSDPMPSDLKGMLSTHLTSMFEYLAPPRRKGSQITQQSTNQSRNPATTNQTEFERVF
T1 sequence (O60563 whole entry partner): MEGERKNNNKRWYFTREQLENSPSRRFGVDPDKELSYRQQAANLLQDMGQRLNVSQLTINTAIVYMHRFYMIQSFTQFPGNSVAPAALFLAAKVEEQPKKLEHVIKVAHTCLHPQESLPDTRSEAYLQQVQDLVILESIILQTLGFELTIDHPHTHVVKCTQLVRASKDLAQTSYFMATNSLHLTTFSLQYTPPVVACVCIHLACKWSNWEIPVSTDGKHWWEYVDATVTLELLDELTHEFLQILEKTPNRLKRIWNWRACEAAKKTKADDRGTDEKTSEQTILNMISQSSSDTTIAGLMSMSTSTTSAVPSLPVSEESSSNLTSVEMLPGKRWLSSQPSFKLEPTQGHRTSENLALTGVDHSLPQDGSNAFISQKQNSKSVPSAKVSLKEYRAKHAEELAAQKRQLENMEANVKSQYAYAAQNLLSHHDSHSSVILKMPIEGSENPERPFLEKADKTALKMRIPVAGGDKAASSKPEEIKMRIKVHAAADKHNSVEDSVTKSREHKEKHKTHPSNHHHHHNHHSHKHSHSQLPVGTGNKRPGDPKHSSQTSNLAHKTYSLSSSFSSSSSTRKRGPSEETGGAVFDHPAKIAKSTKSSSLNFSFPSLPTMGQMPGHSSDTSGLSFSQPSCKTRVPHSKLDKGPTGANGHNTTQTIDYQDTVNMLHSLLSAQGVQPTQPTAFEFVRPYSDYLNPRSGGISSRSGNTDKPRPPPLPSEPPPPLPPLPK

SMILES | IC50 [1] | IC50 (CDK9/CycT1 [2]) | IC50 (MV411 cells) | IC50 (CDK9/CycT1 [3])
CC(=O)N[C@@H]1CCC[C@H](C(=O)Nc2cc(-c3cnn4c3CCCC4)c(C)cn2)C1 [Example 77, (1S,3R)-3-acetamido-N-(5-methyl-4-(4,5,6,7-tetrahydropyrazolo[1,5-a]pyridin-3-yl)pyridin-2-yl)cyclohexanecarboxamide] | 338 nM | 4 nM | 543 nM | 213 nM
CC(=O)N[C@@H]1CCC[C@H](C(=O)Nc2cc(-c3cnn4c3CCCC4O)c(Cl)cn2)C1 (stereo partly drawn) [Example 78, (1S,3R)-3-acetamido-N-(5-chloro-4-(7-hydroxy-4,5,6,7-tetrahydropyrazolo[1,5-a]pyridin-3-yl)pyridin-2-yl)cyclohexanecarboxamide] | 720 nM | < 3 nM | 1230 nM | 60 nM
CC(=O)N[C@@H]1CCC[C@H](C(=O)Nc2cc(-c3cn[nH]c3CCCCO)c(Cl)cn2)C1 [Example 78a, (1S,3R)-3-acetamido-N-(5-chloro-4-(5-(4-hydroxybutyl)-1H-pyrazol-4-yl)pyridin-2-yl)cyclohexanecarboxamide] | > 2630 nM | < 3 nM | 7130 nM | 85 nM
CC(=O)N[C@H]1CCC[C@@H](C(=O)Nc2cc(-c3cnn4c3CC(C)(C)C4)c(F)cn2)C1 [Example 81, (1R,3S)-3-acetamido-N-(4-(5,5-dimethyl-5,6-dihydro-4H-pyrrolo[1,2-b]pyrazol-3-yl)-5-fluoropyridin-2-yl)cyclohexanecarboxamide] | 665 nM | 8 nM | 896 nM | 554 nM
CC(=O)N[C@@H]1CCC[C@H](C(=O)Nc2cc(-c3cn[nH]c3CC(C)(C)CO)c(Cl)cn2)C1 [Example 82a, (1S,3R)-3-acetamido-N-(5-chloro-4-(5-(3-hydroxy-2,2-dimethylpropyl)-1H-pyrazol-4-yl)pyridin-2-yl)cyclohexane-1-carboxamide] | > 2340 nM | 4 nM | 2260 nM | 139 nM

These reach a lower IC50 [1]. Values come first.

IC50 [1] | IC50 (CDK9/CycT1 [2]) | IC50 (MV411 cells) | IC50 (CDK9/CycT1 [3]) | SMILES
62 nM | < 3 nM | 99 nM | 19 nM | O=C(N[C@@H]1CCC[C@H](C(=O)Nc2cc(-c3cnn4c3CCCC4)c(Cl)cn2)C1)C1COC1 [Example 67, N-((1R,3S)-3-((5-chloro-4-(4,5,6,7-tetrahydropyrazolo[1,5-a]pyridin-3-yl)pyridin-2-yl)carbamoyl)cyclohexyl)oxetane-3-carboxamide]
192 nM | < 3 nM | 281 nM | 39 nM | CC(=O)N[C@@H]1CCC[C@H](C(=O)Nc2cc(-c3cnn4c3CCCCC4)c(F)cn2)C1 [Example 74, (1S,3R)-3-acetamido-N-(5-fluoro-4-(5,6,7,8-tetrahydro-4H-pyrazolo[1,5-a]azepin-3-yl)pyridin-2-yl)cyclohexanecarboxamide]
67 nM | < 3 nM | 111 nM | 29 nM | Cc1cnc(NC(=O)[C@H]2CCC[C@@H](NC(=O)CO)C2)cc1-c1cnn2c1CC(C)(C)C2 [Example 75, (1S,3R)—N-(4-(5,5-dimethyl-5,6-dihydro-4H-pyrrolo[1,2-b]pyrazol-3-yl)-5-methylpyridin-2-yl)-3-(2-hydroxyacetamido)cyclohexanecarboxamide]
38 nM | < 3 nM | 36 nM | 9 nM | Cc1cnc(NC(=O)[C@H]2CCC[C@@H](NC(=O)C3COC3)C2)cc1-c1cnn2c1CC(C)(C)C2 [Example 76, N-((1R,3S)-3-((4-(5,5-dimethyl-5,6-dihydro-4H-pyrrolo[1,2-b]pyrazol-3-yl)-5-methylpyridin-2-yl)carbamoyl)cyclohexyl)oxetane-3-carboxamide]
174 nM | < 4 nM | 124 nM | 22 nM | CC(=O)N[C@@H]1CCC[C@H](C(=O)Nc2cc(-c3cnn4c3CC(C)(C)C4O)c(Cl)cn2)C1 (stereo partly drawn) [Example 82, (1S,3R)-3-acetamido-N-(5-chloro-4-(6-hydroxy-5,5-dimethyl-5,6-dihydro-4H-pyrrolo[1,2-b]pyrazol-3-yl)pyridin-2-yl)cyclohexane-1-carboxamide]
